Results reported in PubChem BioAssay AID248 (DTP/NCI, 2004).
Where “and” joins values, the source holds several entries; their conditions need not be identical. Equal values may be shown once. Inconclusive results and toxic doses are left out. No stated cut-off is given here; in the data, active means T/C of 150% or more; inactive means T/C below 125%.

Tested on: L1210 leukemia ip in BDF1 mice, survival T/C
Test: NCI In Vivo Anticancer Drug Screen. Data for tumor model L1210 Leukemia (intraperitoneal) in B6D2F1 (BDF1) mice
Details: higher = longer survival
In short: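 Value reflects the ratio of survival in compound-treated mice to survival in vehicle-treated controls, with both groups carrying the same transplanted tumor.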

[1] = endpoint: mean survival time, dose: 100.0 mg/kg/injection, schedule: Q04DX003 (ip), vehicle: saline
[2] = endpoint: mean survival time, dose: 200.0 mg/kg/injection, schedule: Q04DX003 (ip), vehicle: saline
[3] = endpoint: mean survival time, dose: 400.0 mg/kg/injection, schedule: Q04DX003 (ip), vehicle: saline
[4] = endpoint: mean survival time, dose: 50.0 mg/kg/injection, schedule: Q01DX009 (ip), vehicle: saline with Tween-80
[5] = endpoint: mean survival time, dose: 100.0 mg/kg/injection, schedule: Q01DX009 (ip), vehicle: saline with Tween-80
[6] = endpoint: mean survival time, dose: 100.0 mg/kg/injection, schedule: Q04DX003 (ip), vehicle: saline with Tween-80
[7] = endpoint: mean survival time, dose: 200.0 mg/kg/injection, schedule: Q04DX003 (ip), vehicle: saline with Tween-80
[8] = endpoint: mean survival time, dose: 100.0 mg/kg/injection, schedule: Q04DX003 (ip), vehicle: Klucel (hydroxypropylcellulose) (HPC)
[9] = endpoint: mean survival time, dose: 200.0 mg/kg/injection, schedule: Q04DX003 (ip), vehicle: Klucel (hydroxypropylcellulose) (HPC)
[10] = endpoint: mean survival time, dose: 400.0 mg/kg/injection, schedule: Q04DX003 (ip), vehicle: Klucel (hydroxypropylcellulose) (HPC)
[11] = endpoint: mean survival time, dose: 100.0 mg/kg/injection, schedule: Q01DX009 (ip), vehicle: Klucel (hydroxypropylcellulose) (HPC)
[12] = endpoint: mean survival time, dose: 200.0 mg/kg/injection, schedule: Q01DX009 (ip), vehicle: Klucel (hydroxypropylcellulose) (HPC)
[13] = endpoint: mean survival time, dose: 400.0 mg/kg/injection, schedule: Q01DX009 (ip), vehicle: Klucel (hydroxypropylcellulose) (HPC)
[14] = endpoint: mean survival time, dose: 100.0 mg/kg/injection, schedule: Q01DX009 (ip), vehicle: saline
[15] = endpoint: mean survival time, dose: 200.0 mg/kg/injection, schedule: Q01DX009 (ip), vehicle: saline

Measured: T/C

F
inactive: endpoint: mean survival time, dose: 5.0 mg/kg/injection, schedule: Q01DX001 (ip), vehicle: saline 89 % of control | endpoint: mean survival time, dose: 10.0 mg/kg/injection, schedule: Q01DX001 (ip), vehicle: saline 97 % of control | endpoint: mean survival time, dose: 12.0 mg/kg/injection, schedule: Q01DX Z (ip), vehicle: saline 98 % of control | endpoint: mean survival time, dose: 20.0 mg/kg/injection, schedule: Q01DX001 (ip), vehicle: saline 103 % of control | endpoint: mean survival time, dose: 24.0 mg/kg/injection, schedule: Q01DX Z (ip), vehicle: saline 101 % of control | endpoint: mean survival time, dose: 40.0 mg/kg/injection, schedule: Q01DX001 (ip), vehicle: saline 97 % of control | endpoint: mean survival time, dose: 48.0 mg/kg/injection, schedule: Q01DX Z (ip), vehicle: saline 110 % of control | endpoint: mean survival time, dose: 62.0 mg/kg/injection, schedule: Q01DX Z (ip), vehicle: saline 92 % of control | endpoint: median survival time, dose: 5.0 mg/kg/injection, schedule: Q01DX009 (ip), vehicle: water 93 % of control | endpoint: median survival time, dose: 10.0 mg/kg/injection, schedule: Q01DX009 (ip), vehicle: water 100 % of control | endpoint: median survival time, dose: 20.0 mg/kg/injection, schedule: Q01DX009 (ip), vehicle: water 106 % of control | endpoint: median survival time, dose: 40.0 mg/kg/injection, schedule: Q01DX009 (ip), vehicle: water 106 % of control

CN=C(NC)c1cccc(NC(=O)c2ccc(C(=O)Nc3cccc(C(=NC)NC)c3)cc2)c1
inactive: endpoint: mean survival time, dose: 1.2 mg/kg/injection, schedule: Q01DX Z (ip), vehicle: carboxymethylcellulose (CMC) 93 % of control | endpoint: mean survival time, dose: 2.5 mg/kg/injection, schedule: Q01DX Z (ip), vehicle: carboxymethylcellulose (CMC) 96 % of control | endpoint: mean survival time, dose: 5.0 mg/kg/injection, schedule: Q01DX Z (ip), vehicle: carboxymethylcellulose (CMC) 93 % of control | endpoint: mean survival time, dose: 10.0 mg/kg/injection, schedule: Q01DX Z (ip), vehicle: carboxymethylcellulose (CMC) 100 % of control

CSc1ncc(Br)c(N2CC2)n1
inactive: endpoint: mean survival time, dose: 59.0 mg/kg/injection, schedule: Q01DX Z (ip), vehicle: methylcellulose (MC) 89 % of control | endpoint: mean survival time, dose: 88.0 mg/kg/injection, schedule: Q01DX Z (ip), vehicle: methylcellulose (MC) 86 % of control

CC(C)(NC(=O)C(F)(F)F)C(=O)O
inactive: [1] 100 % of control | [2] 87 % of control | [3] 95 % of control

CC(C)(c1cccs1)c1cscc1C(=O)O
inactive: [1] 108 % of control | [2] 113 % of control | [3] 105 % of control

C=C(C)Cc1c(C)c(C)c(OS(=O)(=O)c2ccc(Br)cc2)c(C)c1C
inactive: endpoint: mean survival time, dose: 50.0 mg/kg/injection, schedule: Q04DX003 (ip), vehicle: gum acacia 89 % of control | endpoint: mean survival time, dose: 100.0 mg/kg/injection, schedule: Q04DX003 (ip), vehicle: gum acacia 89 % of control | endpoint: mean survival time, dose: 200.0 mg/kg/injection, schedule: Q04DX003 (ip), vehicle: gum acacia 91 % of control

CC1(c2ccc(Cl)s2)C(=O)N(Cl)C(=O)N1Cl (configuration not stated)
inactive: endpoint: mean survival time, dose: 12.5 mg/kg/injection, schedule: Q01DX009 (ip), vehicle: saline with Tween-80 95 % of control | endpoint: mean survival time, dose: 25.0 mg/kg/injection, schedule: Q01DX009 (ip), vehicle: saline with Tween-80 100 % of control | [4] 94 % of control and 89 % of control | [5] 93 % of control | [6] 96 % of control | [7] 98 % of control

CC1=C(C)Cc2c(-c3ccccc3)oc(-c3ccccc3)c2C1
inactive: endpoint: mean survival time, dose: 100.0 mg/kg/injection, schedule: Q01DX001 (ip), vehicle: saline with Tween-80 94 % of control | endpoint: mean survival time, dose: 200.0 mg/kg/injection, schedule: Q01DX001 (ip), vehicle: saline with Tween-80 90 % of control | endpoint: mean survival time, dose: 400.0 mg/kg/injection, schedule: Q01DX001 (ip), vehicle: saline with Tween-80 90 % of control

Cc1nnn(N/N=C(\C(=O)Oc2ccccc2)c2ccccc2)c1C
inactive: [8] 100 % of control | [9] 103 % of control | [10] 96 % of control

Clc1cc(CBr)c(Cl)c(Cl)c1CBr
inactive: endpoint: mean survival time, dose: 6.25 mg/kg/injection, schedule: Q01DX009 (ip), vehicle: saline sonified 94 % of control | endpoint: mean survival time, dose: 6.25 mg/kg/injection, schedule: Q04DX003 (ip), vehicle: Klucel (hydroxypropylcellulose) (HPC) 97 % of control | endpoint: mean survival time, dose: 12.5 mg/kg/injection, schedule: Q01DX009 (ip), vehicle: saline sonified 94 % of control | endpoint: mean survival time, dose: 12.5 mg/kg/injection, schedule: Q04DX003 (ip), vehicle: Klucel (hydroxypropylcellulose) (HPC) 91 % of control | endpoint: mean survival time, dose: 25.0 mg/kg/injection, schedule: Q01DX009 (ip), vehicle: saline sonified 91 % of control | endpoint: mean survival time, dose: 25.0 mg/kg/injection, schedule: Q04DX003 (ip), vehicle: Klucel (hydroxypropylcellulose) (HPC) 98 % of control

O=C(/C=C/C(=O)Oc1ccccc1)Oc1ccccc1
inactive: [11] 88 % of control | [8] 107 % of control | [12] 91 % of control | [9] 107 % of control | [13] 98 % of control | [10] 98 % of control

CC(C)(CO)CN1CCCCC1
inactive: [4] 93 % of control | [5] 93 % of control

CCOC(=O)NOP(=O)(N1CC1)N1CC1
active: endpoint: mean survival time, dose: 100.0 mg/kg/injection, schedule: Q04DX002 (ip), vehicle: saline 153 % of control

N#CC(CCO)(CCO)c1ccccc1
inactive: [11] 101 % of control | [12] 97 % of control | [13] 105 % of control

COc1nc(N)nc2c1ncn2C1OC(CO)C(O)C1O (configuration not stated)
inactive: endpoint: mean survival time, dose: 75.0 mg/kg/injection, schedule: Q01DX001 (ip), vehicle: saline 102 % of control | endpoint: mean survival time, dose: 150.0 mg/kg/injection, schedule: Q01DX001 (ip), vehicle: saline 93 % of control

CC(C)=CCC(=O)Oc1ccccc1C(=O)O
inactive: [6] 92 % of control | [7] 102 % of control

COC(=O)c1ccccc1NS(=O)(=O)c1ccc(Cl)cc1
inactive: endpoint: mean survival time, dose: 100.0 mg/kg/injection, schedule: Q04DX002 (ip), vehicle: Klucel (hydroxypropylcellulose) (HPC) 94 % of control | endpoint: mean survival time, dose: 400.0 mg/kg/injection, schedule: Q04DX002 (ip), vehicle: Klucel (hydroxypropylcellulose) (HPC) 110 % of control

Cc1ccc2ccccc2c1N(CC(=O)O)S(=O)(=O)c1ccccc1
inactive: endpoint: mean survival time, dose: 100.0 mg/kg/injection, schedule: Q04DX003 (ip), vehicle: saline sonified 93 % of control | endpoint: mean survival time, dose: 200.0 mg/kg/injection, schedule: Q04DX003 (ip), vehicle: saline sonified 102 % of control | endpoint: mean survival time, dose: 400.0 mg/kg/injection, schedule: Q04DX003 (ip), vehicle: saline sonified 101 % of control

C=C1OC(=O)C(=O)N1CC(=O)O
inactive: endpoint: mean survival time, dose: 100.0 mg/kg/injection, schedule: Q01DX001 (ip), vehicle: saline 103 % of control | endpoint: mean survival time, dose: 200.0 mg/kg/injection, schedule: Q01DX001 (ip), vehicle: saline 106 % of control

CC(=O)Nn1nnnc1N
inactive: [1] 99 % of control | [2] 91 % of control | [3] 105 % of control

OCc1nccn1Cc1ccccc1
inactive: endpoint: mean survival time, dose: 25.0 mg/kg/injection, schedule: Q01DX009 (ip), vehicle: water 99 % of control | endpoint: mean survival time, dose: 50.0 mg/kg/injection, schedule: Q01DX009 (ip), vehicle: water 100 % of control | [14] 97 % of control | endpoint: mean survival time, dose: 100.0 mg/kg/injection, schedule: Q01DX009 (ip), vehicle: water 100 % of control | [15] 108 % of control | endpoint: mean survival time, dose: 200.0 mg/kg/injection, schedule: Q01DX009 (ip), vehicle: water 106 % of control

C/C=C1/C[C@@H](C)[C@@](C)(O)C(=O)OCC2=CCN3CC[C@@H](OC1=O)[C@@H]23
inactive: endpoint: mean survival time, dose: 10.0 mg/kg/injection, schedule: Q01DX015 (ip), vehicle: carboxymethylcellulose (CMC) 93 % of control | endpoint: mean survival time, dose: 20.0 mg/kg/injection, schedule: Q01DX015 (ip), vehicle: carboxymethylcellulose (CMC) 96 % of control | endpoint: mean survival time, dose: 30.0 mg/kg/injection, schedule: Q01DX015 (ip), vehicle: carboxymethylcellulose (CMC) 98 % of control | endpoint: mean survival time, dose: 100.0 mg/kg/injection, schedule: Q01DX001 (ip), vehicle: carboxymethylcellulose (CMC) 105 % of control

CC1=CC(=O)OC(C)(C)O1
inactive: [14] 103 % of control | [1] 100 % of control | [15] 101 % of control | [2] 91 % of control | endpoint: mean survival time, dose: 400.0 mg/kg/injection, schedule: Q01DX009 (ip), vehicle: saline 110 % of control | [3] 98 % of control
